Experiments:
[1] = tested on: DR5; assay: Western blot, DR5 induction; assay type: cell-based, human; conditions: five cell lines, 24 h
Description: (§1) Figure 4 Activation of ATF4 and up-regulation of typical p53 target genes. (A–E) Western blot analysis of p53 protein levels and upregulation of ATF4, PUMA, DR5 and p21. Cells were treated for 24 h with indicated compounds, concentrations and cell lines. Abbreviations: S.E.: Short exposure; L.E.: Long exposure.
(§2) After treatment, protein lysates were collected for Western blot analysis. A total of 15 μg of protein was used for SDS-PAGE. After primary and secondary antibody incubations, the signal was detected by a chemiluminescence detection kit, imaged by Syngene (Imgen Technologies). Antibodies for NAG-1 (GDF15) and P53 were from Santa Cruz Biotechnology; for caspase 8, cleaved caspase 8, caspase 9, caspase 3, cleavage PARP, eIF2α, p-eIF2α (Ser51), CHOP, ATF4, DR5, and PUMA were from Cell Signaling Technology. Noxa and p21 were from Calbiochem. Ran was from BD Biosciences.

[2] = tested on: cleaved caspase-8, -3, cleaved PARP and PUMA in HT29, SW480 and HCT116 p53−/− cells; assay: Western blot, apoptosis markers in PG3-treated cells; assay type: cell-based, human
Description: Figure 5 PG3 induces apoptosis in p53-null and p53-mutant cancer cell lines. (A–E) Dose-response and time-course analysis of cleavage of caspase-8, -3, cleaved PARP and PUMA in PG3-treated HT29, SW480 and HCT116 p53^−/− cells by western blot using the indicated antibodies. (F–H) Flowcytometry analysis of cell death. (I) HT29 and HT29-PUMA^−/− and (J) SW480 cells were co-treated with PG3 and pan-caspase inhibitor Z-VAD-fmk for 48 h. (K) HCT116 p53^−/− cell were co-treated with PG3 and Z-VAD-fmk for 24 hours.
as §2

[3] = tested on: ATF4; assay: Western blot, ATF4 induction; assay type: cell-based, human; conditions: five cancer cell lines, 24 h
Description: as §1, §2

[4] = tested on: HT29 (R273H); assay: Cell viability assay (CellTiterGlo), HT29; assay type: cell-based, human; conditions: Homo sapiens, HT-29; 72 h, CellTiterGlo
Description: (§3) Figure 1 PG3 inhibits cell proliferation and growth in a p53-indepent manner. (A–E) Cell viability assay, dose response curves and IC50 value measurements in a panel of cancer cell lines and normal cells. Cells were treated with different concentrations of PG3, PG3-Oc (Oc), obatoclax (Ob), prodigiosin (P) or DMSO for 72 h. Luciferase activity was imaged by the IVIS Imaging System after treatment. Cell viability data were normalized to those of DMSO treatment control in each cell line and data analyses were performed using PRISM4 software. IC50 data are expressed as the mean ±SD (normal; n = 3).
as §3, with “2 p53-dependent inhibition of” for “1 PG3 inhibits”, “is only observed at specific concentrations. (A–J)” for “and growth in a p53-indepent manner. (A–E)”, “ZMC1, CP-313908, APR-246, Ellipticine, Nutalin-3a” for “PG3, PG3-Oc (Oc), obatoclax (Ob), prodigiosin (P)”
(§4) Cells were seeded in 96-well plates (6 × 10^3 cells/well). Cells were treated with different concentrations of compounds or dimethyl sulfoxide (DMSO) as a control for 72 hours. The cell viability was assessed by CellTiterGlo bioluminescent cell viability assay (Promega), following the manufacturer’s protocol. Bioluminescence imaging was measured using the IVIS imager. The percentage of cell viability (mean ± SEM) at each dose was calculated against the respective DMSO control. The IC50 values were determined from the sigmoidal dose-response curves using GraphPad Prism.

[5] = tested on: HCT116 (WT); assay: Cell viability assay (CellTiterGlo), HCT116 WT; assay type: cell-based, human; conditions: Homo sapiens, HCT-116; 72 h, CellTiterGlo
Description: as §3
as §3, with “2 p53-dependent inhibition of” for “1 PG3 inhibits”, “is only observed at specific concentrations. (A–J)” for “and growth in a p53-indepent manner. (A–E)”, “ZMC1, CP-313908, APR-246, Ellipticine, Nutalin-3a” for “PG3, PG3-Oc (Oc), obatoclax (Ob), prodigiosin (P)”
as §4

[6] = tested on: HFF-1 (human foreskin fibroblast cell with wild-type p53); assay: Cell viability assay (CellTiterGlo), HFF-1 normal cells; assay type: cell-based
Description: as §3
as §3, with “2 p53-dependent inhibition of” for “1 PG3 inhibits”, “is only observed at specific concentrations. (A–J)” for “and growth in a p53-indepent manner. (A–E)”, “ZMC1, CP-313908, APR-246, Ellipticine, Nutalin-3a” for “PG3, PG3-Oc (Oc), obatoclax (Ob), prodigiosin (P)”
as §4

[7] = tested on: MRC5 (human lung fibroblast cell with wild-type p53); assay: Cell viability assay (CellTiterGlo), MRC5 normal cells; assay type: cell-based; conditions: Homo sapiens, MRC5, 72 h, read-out: IC50 values, MRC5 (WT)
Description: as §3
as §3, with “2 p53-dependent inhibition of” for “1 PG3 inhibits”, “is only observed at specific concentrations. (A–J)” for “and growth in a p53-indepent manner. (A–E)”, “ZMC1, CP-313908, APR-246, Ellipticine, Nutalin-3a” for “PG3, PG3-Oc (Oc), obatoclax (Ob), prodigiosin (P)”
as §4

[8] = tested on: HCT116 (R175H); assay: Cell viability assay (CellTiterGlo), HCT116 R175H; assay type: cell-based, human; conditions: Homo sapiens, HCT-116; 72 h, CellTiterGlo
Description: as §3
as §3, with “2 p53-dependent inhibition of” for “1 PG3 inhibits”, “is only observed at specific concentrations. (A–J)” for “and growth in a p53-indepent manner. (A–E)”, “ZMC1, CP-313908, APR-246, Ellipticine, Nutalin-3a” for “PG3, PG3-Oc (Oc), obatoclax (Ob), prodigiosin (P)”
as §4

[9] = tested on: ALAS1, UROD; assay: Western blot, heme biosynthesis enzymes; assay type: cell-based, human
Description: Figure 8 Inhibition of heme biosynthesis leads to upregulation of ATF4. (A) HT29 cells were treated with SA and ONC201 for 20 hours. Western blotting was performed using the indicated antibodies. (B) HT29 cells were transfected with siCtrl, siHRI, siClpX, siALAS1, siClpX/siALAS1 and siClpX/siALAS1/siHRI for 48 hours. (C) HT29 cells were transfected with siCtrl, siLonP1, siClpP for 24 or 48 hours respectively, and then treated with ONC201 for 24 hours. (D) Proposed model of ONC201-induced cell apoptosis through ClpP/ALAS1/HRI/ATF4 axis. (E, F) Silencing of ClpP in HCT116 p53^−/− and MDA-MB-468 cells and then treated with PG3, PG3-Oc and ONC201. Western blot was performed using indicated antibodies.
as §2
Supplementary Figure 2: ROS and NO are not responsible for PG3-induced HRI activation. (A, B) cells were pre-treated
with ZnPP, L-NMMA, SA and NAC for 2 hours respectively, and then ONC201 or PG3 was added to the medium for 24 hour treatment.
Western blot was performed using indicated antibodies.
(1 picture or pasted object on this page, not shown here)

[10] = tested on: p21; assay: Western blot, p21 induction; assay type: cell-based, human; conditions: five cell lines, 24 h
Description: as §1, §2

With `CCc1c(C)[nH]c(/C=C2\N=C(c3ccc[nH]3)C=C2OC)c1C` [PG3] the “upregulation of DR5” value [1] was “consistently induce upregulation”, the “time at which cleavage of PARP, caspase-8 and -3 occurs” value ([2]; HT29, HCT116 p53–/– and SW480) was 48 h and the “concentration sufficient to induce PUMA and activate cleaved caspase-8 and -3 and cleaved-PARP” value ([2]; HT29 and SW480 cells, dose-response) was 0.5 µM. The caspase-9 activation ([2]; HT29 cells) was “does not activate caspase-9”, the “time at which PUMA protein is first induced” value ([2]; time-course) was 24 h and the “upregulation of ATF4” value [3] was “induce upregulation of ATF4”. The IC50 [4] was 36 nM, the IC50 [5] was 71 nM and the “fold less toxic than PG3-Oc” value ([6]; HFF-1 normal cells) was 3.4 fold. The IC50 ([6]; Homo sapiens, HFF-1, 72 h, CellTiterGlo, normal cells, read-out: IC50 values, HFF-l (WT)) was 1050 nM, the IC50 [7] was 2230 nM and the IC50 [8] was 66 nM. The ALAS1 protein level ([9]; 24 hour treatment) was “does not lead to the downregulation of ALAS1”, the UROD protein levels ([9]; western blot) was “do not have any effects” and the “upregulation of p21” value [10] was “consistently induce upregulation”.
